From patent US20230096528A1, “Pharmaceutical Composition for Treatment or Prevention of Multiple Inflammatory disorders” (priority 2019, published 2023)

Experiments:
[1] = system: leptin-deficient (ob/ob) mice; test: Body weight and biomarker study in leptin-deficient (ob/ob) mice, 56 days (Example 10); format: in vivo; settings: 50 mg/kg gavage BID
Protocol: Therefore, ob/ob mice are a predictive in vivo model for these indications. This example provides results of a study of DA plus another compound (CQL) on body weight in leptin-deficient (ob/ob) mice. Vehicle group (N=14) were treated with distilled water by gavage BID, and DA (N=14) at a dose of 50 mg/kg by gavage BID. The study period was for 56 days+2-3 days testing period afterward. Body weight change measured 3× per week, food intake was measure twice per week, metabolic biomarkers (blood glucose, blood insulin, blood HbA1c, HDL, LDL, triglyceride and bile acid) were measured at beginning and end of study. Cytokine analysis was measured at end on Day 56.

diet-induced (DIO) mice = test: Body weight study in diet-induced (DIO) mice (Example 9); format: in vivo, C57BL/6NTac mice; settings: DA 92.4 mg/kg gavage BID, vs vehicle
[2] = system: biomarkers (chemokines, CSFs, interleukins, IFNs); test: Biomarkers compared across many studies (Table 2); format: in vivo; settings: PO 92.4 mg/kg DA BID
Protocol: The many examples provided herein show the effect of the denatonium salts on various in vivo and in vitro models of various disease indications. In addition, blood samples were taken from the tested (and control) animals and various biomarkers were measured and compared. FIGS. 70A-C show graphs comparing biomarkers across many studies. […] It should be noted that clusters of multiple biomarkers predict effectiveness for each disease indication and that grouping is shown in FIG. 71.

[3] = day 56, no significant difference

CC(=O)[O-].CC[N+](CC)(CC(=O)Nc1c(C)cccc1C)Cc1ccccc1 [DA, denatonium acetate]
Body weight ([1]; 56 days): no significant effect
Daily food consumption ([1]; 56 days): no significant effect
Serum HBA1c levels ([1]; 56 days): no significant effect
Serum HDL levels ([1]; 56 days): no significant effects
Serum glucose levels ([1]; 56 days): significantly decreased
Serum insulin levels ([1]; 56 days): no significant effect
Serum LDL levels ([1]; 56 days, vs vehicle): significantly lowered
Serum bile acids levels ([1]; 56 days, vs vehicle): significantly increased
Serum triglyceride levels ([1]; 56 days, vs vehicle): significantly lowered
IL-1β level decreased by, compared to vehicle group [1, 3]: 19.1%
IL-6 level decreased by, compared to vehicle group [1, 3]: 61.4%
MCP-1 level decreased by, compared to vehicle group [1, 3]: 20.9%
RANTES level decreased by, compared to vehicle group [1, 3]: 1.7%
Daily food intake at Day 14 (diet-induced (DIO) mice): significantly reduced
Eotaxin: Decreased Percentage Compared to Vehicle [2]: −18.6%
G-CSF: Decreased Percentage Compared to Vehicle [2]: −37.5%
GM-CSF: Decreased Percentage Compared to Vehicle [2]: −2.3%
IFN-γ: Decreased Percentage Compared to Vehicle [2]: −37.3%
IL-1α: Decreased Percentage Compared to Vehicle [2]: −18.2%
IL-1β: Decreased Percentage Compared to Vehicle [2]: −12.0%
IL-3: Decreased Percentage Compared to Vehicle [2]: −74.5%
IL-5: Decreased Percentage Compared to Vehicle [2]: −29.1%
IL-6: Decreased Percentage Compared to Vehicle [2]: −34.2%
IL-10: Decreased Percentage Compared to Vehicle [2]: −92.5%
IL-12 (p70): Decreased Percentage Compared to Vehicle [2]: −28.0%
IL-17: Decreased Percentage Compared to Vehicle [2]: −21.2%
KC: Decreased Percentage Compared to Vehicle [2]: −21.6%
LIX: Decreased Percentage Compared to Vehicle [2]: −7.3%
MCP-1: Decreased Percentage Compared to Vehicle [2]: −24.2%
MIG: Decreased Percentage Compared to Vehicle [2]: −13.2%
MIP-1α: Decreased Percentage Compared to Vehicle [2]: −3.4%
MIP-1β: Decreased Percentage Compared to Vehicle [2]: −10.2%
MIP-2: Decreased Percentage Compared to Vehicle [2]: −76.3%
RANTES: Decreased Percentage Compared to Vehicle [2]: −20.6%
